Source: patent US20140303092A1 (CHIMERIX, INC., priority 2011, published 2014)

Test: Study HDP-CDV-201: safety and tolerability (adverse events, laboratory abnormalities, discontinuations)
Type: in vivo, human (adult allogeneic HSCT recipients)
Protocol: Clinical Studies of HDP-CDV were performed and described in detail in the following Examples. For example, HDP-CDV-201 is a placebo-controlled, dose-escalating trial in HSCT CMV (R+) recipients, evaluating the ability of HDP-CDV to prevent or control CMV infection was carried out. Five cohorts were established in which participants or subjects received either placebo or the HDP-CDV orally, in doses ranging from 40 mg weekly (QW) to 200 mg twice weekly (BIW). Subjects who were post-HSCT were enrolled at the time of engraftment and randomized to HDP-CDV or placebo (3 to 1 ratio) and received blinded therapy until approximately 100 day post-transplantation. HDP-CDV doses were 40 mg QW, 100 mg QW, 200 mg QW, 200 mg BIW and 100 mg BIW. Escalation to the next dose was decided by the data monitoring committee after review of the safety data from the previous Cohort. Subjects who developed CMV disease or CMV infection requiring pre-emptive therapy with local standard of care were discontinued from blinded therapy and followed for 4 weeks. Subjects who completed treatment with blinded therapy were followed for 8 weeks post-therapy.
Data from Study HDP-CDV-201 also provided characterization of the safety and tolerability profile of HDP-CDV when administered for the prevention or control of CMV infection in high risk (R^+) post-HSCT adult subjects.
The Safety population (SAFETY) included all randomized subjects who took at least one dose of study treatment. This population was used to summarize safety outcomes based on the treatment actually received, in cases where a subject was treated contrary to the randomization schedule.
The safety and tolerability profile of HDP-CDV, including subject demographics and Baseline characteristics; the AE profile; and laboratory abnormalities of interest were analyzed in the cohorts followed in this investigation.
Subjects completing the treatment period received a full course of study medication; those completing the entire study attended visits through 8 weeks of follow up. Subjects who discontinued treatment may have done so for protocol specified reasons (e.g. development of clinically significant CMV infection requiring preemptive treatment with excluded anti-CMV medications) or for other reasons (e.g., withdrawal, adverse events, loss to follow-up). The disposition of subjects in Study HDP-CDV-201 during the double-blind, placebo-controlled treatment period (through Week 11) is listed by dosing Cohort in TABLE 23.
Adverse events were examined by severity to ensure that all safety signals were identified in this study population. Because of the frequency of events in HSCT recipients, particular attention was given to evaluation of Grade 3 […], 4 (severe), and 5 (fatal) adverse events.
Only those preferred terms for which at least one Grade 3 or higher event was experienced in any treatment group are listed. Cytomegalovirus-related AEs are excluded from this analysis.
HDP-CDV is a lipid conjugate of CDV. Because CDV is known to have adverse effects on renal function and bone marrow, decreased GFR and persistent neutropenia were identified as AEs of special interest. Key renal and hematological (TABLE 30) laboratory parameters were measured and listed below by Study HDP-CDV-201 treatment groups. TABLE 30 includes abnormal levels of serum creatinine, neutrophils, platelets, WBCs, and hemoglobin and includes data at Screening and during the treatment period.
A common metric for unit based dosing of medications is by weight (mg/kg). When the distribution of weights was examined for all subjects participating in the study, the median was 78 kg and the lower 25th percentile weight was approximately 65 kg, which translates to a cut-off of ˜3 mg/kg for a 200 mg total weekly dose. Based upon this approach, a cut-off of 3 mg/kg was used to assess the frequency of diarrhea and associated GI AEs reported for the subjects in Cohorts 3 or 4a (TABLE 40).

CCCCCCCCCCCCCCCCOCCCOP(=O)(O)COC(CO)Cn1ccc(N)nc1=O (stereo not drawn) [HDP-CDV]
Abnormal ALT >3-5x ULN, Screening, subjects (Cohort 3, >3.0 mg/kg/wk): 0
Abnormal ALT >5-10x ULN, Any Time Between Week 2 and Week 10, subjects (Cohort 3, >3.0 mg/kg/wk): 0
Abnormal ALT >5-10x ULN, Screening, subjects (Cohort 3, >3.0 mg/kg/wk): 0
Abnormal ALT >10-20x ULN, Any Time Between Week 2 and Week 10, subjects (Cohort 3, >3.0 mg/kg/wk): 0
Abnormal ALT >10-20x ULN, Screening, subjects (Cohort 3, >3.0 mg/kg/wk): 0
Abnormal ALT >20x ULN, Any Time Between Week 2 and Week 10, subjects (Cohort 3, >3.0 mg/kg/wk): 0
Abnormal ALT >20x ULN, Screening, subjects (Cohort 3, >3.0 mg/kg/wk): 0
Abnormal ALT >3-5x ULN, Any Time Between Week 2 and Week 10, subjects (Cohort 3, ≦3.0 mg/kg/wk): 3 (12.5%)
Abnormal ALT >3-5x ULN, Screening, subjects (Cohort 3, ≦3.0 mg/kg/wk): 0
Abnormal ALT >5-10x ULN, Any Time Between Week 2 and Week 10, subjects (Cohort 3, ≦3.0 mg/kg/wk): 5 (20.8%)
Abnormal ALT >5-10x ULN, Screening, subjects (Cohort 3, ≦3.0 mg/kg/wk): 0
Abnormal ALT >10-20x ULN, Any Time Between Week 2 and Week 10, subjects (Cohort 3, ≦3.0 mg/kg/wk): 0
Abnormal ALT >10-20x ULN, Screening, subjects (Cohort 3, ≦3.0 mg/kg/wk): 0
Abnormal ALT >20x ULN, Any Time Between Week 2 and Week 10, subjects (Cohort 3, ≦3.0 mg/kg/wk): 1 (4.2%)
Abnormal ALT >20x ULN, Screening, subjects (Cohort 3, ≦3.0 mg/kg/wk): 0
Grade of hepatobiliary AE hepatomegaly, subject 4019 (Cohort 4): 1
Grade of hepatobiliary AE hyperbilirubenemia, subject 4001 (Cohort 4): 2
Grade of hepatobiliary AE hyperbilirubinemia, subject 4014 (Cohort 4): 4
Grade of hepatobiliary AE hyperbilirubinemia, subject 4041 (Cohort 4): 1
Grade of hepatobiliary AE jaundice, subject 4002 (Cohort 4): 1
Grade of hepatobiliary AE worsening hyperbilirubinemia, subject 4004 (Cohort 4): 1
Outcome of hepatobiliary AE hepatomegaly, subject 4019 (Cohort 4): recovered/resolved
Outcome of hepatobiliary AE hyperbilirubenemia, subject 4001 (Cohort 4): not recovered/not
Outcome of hepatobiliary AE hyperbilirubinemia, subject 4014 (Cohort 4): not recovered/not
Outcome of hepatobiliary AE hyperbilirubinemia, subject 4041 (Cohort 4): recovered/resolved
Outcome of hepatobiliary AE jaundice, subject 4002 (Cohort 4): not recovered/not
Outcome of hepatobiliary AE worsening hyperbilirubinemia, subject 4004 (Cohort 4): recovered/resolved
Relationship of hepatobiliary AE hepatomegaly, subject 4019 (Cohort 4): not related
Relationship of hepatobiliary AE hyperbilirubenemia, subject 4001 (Cohort 4): not related
Relationship of hepatobiliary AE hyperbilirubinemia, subject 4014 (Cohort 4): not related
Relationship of hepatobiliary AE hyperbilirubinemia, subject 4041 (Cohort 4): not related
Relationship of hepatobiliary AE jaundice, subject 4002 (Cohort 4): not related
Relationship of hepatobiliary AE worsening hyperbilirubinemia, subject 4004 (Cohort 4): not related
subjects discontinued due to neutropenia (Cohort 4): 0 subject(s)
ALT (Screening) >3 × ULN-5 × ULN, subjects (Cohort 4, 200 mg BIW): 2 (6.7%)
ALT (Screening) >5 × ULN-10 × ULN, subjects (Cohort 4, 200 mg BIW): 2 (6.7%)
ALT (Screening) >10 × ULN-20 × ULN, subjects (Cohort 4, 200 mg BIW): 0
ALT (Screening) >20 × ULN, subjects (Cohort 4, 200 mg BIW): 0
ALT (any time during therapy) >3 × ULN-5 × ULN, subjects (Cohort 4, 200 mg BIW): 4 (13.8%)
ALT (any time during therapy) >5 × ULN-10 × ULN, subjects (Cohort 4, 200 mg BIW): 6 (20.7%)
ALT (any time during therapy) >10 × ULN-20 × ULN, subjects (Cohort 4, 200 mg BIW): 2 (6.9%)
ALT (any time during therapy) >20 × ULN, subjects (Cohort 4, 200 mg BIW): 0
AST (Screening) >3 × ULN-5 × ULN, subjects (Cohort 4, 200 mg BIW): 1 (3.3%)
AST (Screening) >5 × ULN-10 × ULN, subjects (Cohort 4, 200 mg BIW): 0
AST (Screening) >10 × ULN-20 × ULN, subjects (Cohort 4, 200 mg BIW): 0
AST (Screening) >20 × ULN, subjects (Cohort 4, 200 mg BIW): 0
AST (any time during therapy) >3 × ULN-5 × ULN, subjects (Cohort 4, 200 mg BIW): 6 (20.7%)
AST (any time during therapy) >5 × ULN-10 × ULN, subjects (Cohort 4, 200 mg BIW): 0
AST (any time during therapy) >10 × ULN-20 × ULN, subjects (Cohort 4, 200 mg BIW): 0
AST (any time during therapy) >20 × ULN, subjects (Cohort 4, 200 mg BIW): 0
Alkaline Phosphatase (Screening) >2.5-5.0 × ULN, subjects (Cohort 4, 200 mg BIW): 0
Alkaline Phosphatase (Screening) >5.0-20.0 × ULN, subjects (Cohort 4, 200 mg BIW): 0
Alkaline Phosphatase (Screening) >20.0 × ULN, subjects (Cohort 4, 200 mg BIW): 0
Alkaline Phosphatase (Screening) >ULN-[…] ULN, subjects (Cohort 4, 200 mg BIW): 7 (23.3%)
Alkaline Phosphatase (any time during therapy) >2.5-5.0 × ULN, subjects (Cohort 4, 200 mg BIW): 0
Alkaline Phosphatase (any time during therapy) >5.0-20.0 × ULN, subjects (Cohort 4, 200 mg BIW): 0
Alkaline Phosphatase (any time during therapy) >20.0 × ULN, subjects (Cohort 4, 200 mg BIW): 0
Alkaline Phosphatase (any time during therapy) >ULN-[…] ULN, subjects (Cohort 4, 200 mg BIW): 11 (37.9%)
GI AE Leading to Study Drug Discontinuation: Abdominal pain, subjects (Cohort 4, 200 mg BIW): 1 (3.3%)
GI AE Leading to Study Drug Discontinuation: Diarrhoea, subjects (Cohort 4, 200 mg BIW): 7 (23.3%)
GI AE Leading to Study Drug Discontinuation: Dyspepsia, subjects (Cohort 4, 200 mg BIW): 0
GI AE Leading to Study Drug Discontinuation: Nausea, subjects (Cohort 4, 200 mg BIW): 1 (3.3%)
GI AE Leading to Study Drug Discontinuation: Vomiting, subjects (Cohort 4, 200 mg BIW): 0
GI AEs Leading to Study Drug Discontinuation: Total subjects discontinued (Cohort 4, 200 mg BIW): 9 (30.0%)
Gastrointestinal AE Abdominal discomfort, subjects (Cohort 4, 200 mg BIW): 0
Gastrointestinal AE Abdominal distention, subjects (Cohort 4, 200 mg BIW): 1 (3.3%)
Gastrointestinal AE Abdominal pain upper, subjects (Cohort 4, 200 mg BIW): 3 (10.0%)
Gastrointestinal AE Abdominal pain, subjects (Cohort 4, 200 mg BIW): 11 (36.7%)
Gastrointestinal AE Constipation, subjects (Cohort 4, 200 mg BIW): 3 (10.0%)
Gastrointestinal AE Diarrhoea, subjects (Cohort 4, 200 mg BIW): 21 (70.0%)
Gastrointestinal AE Diverticulum intestinal haemorragic, subjects (Cohort 4, 200 mg BIW): 0
Gastrointestinal AE Dyspepsia, subjects (Cohort 4, 200 mg BIW): 1 (3.3%)
Gastrointestinal AE Dysphagia, subjects (Cohort 4, 200 mg BIW): 0
Gastrointestinal AE Epigastric discomfort, subjects (Cohort 4, 200 mg BIW): 0
Gastrointestinal AE Flatulence, subjects (Cohort 4, 200 mg BIW): 3 (10.0%)
Gastrointestinal AE GERD, subjects (Cohort 4, 200 mg BIW): 2 (6.7%)
Gastrointestinal AE Gastritis, subjects (Cohort 4, 200 mg BIW): 0
Gastrointestinal AE Haematochezia, subjects (Cohort 4, 200 mg BIW): 0
Gastrointestinal AE Haemorroids, subjects (Cohort 4, 200 mg BIW): 2 (6.7%)
Gastrointestinal AE Large intestinal ulcer, subjects (Cohort 4, 200 mg BIW): 0
Gastrointestinal AE Nausea, subjects (Cohort 4, 200 mg BIW): 11 (36.7%)
Gastrointestinal AE Odynophagia, subjects (Cohort 4, 200 mg BIW): 1 (3.3%)
Gastrointestinal AE Oesophagitis, subjects (Cohort 4, 200 mg BIW): 0
Gastrointestinal AE Retching, subjects (Cohort 4, 200 mg BIW): 0
Gastrointestinal AE Vomiting, subjects (Cohort 4, 200 mg BIW): 8 (26.7%)
Hepatobiliary clinical AE Cholelithiasis, subjects (Cohort 4, 200 mg BIW): 0
Hepatobiliary clinical AE Hepatomegaly, subjects (Cohort 4, 200 mg BIW): 1 (3.3%)
Hepatobiliary clinical AE Hyperbilirubinaemia, subjects (Cohort 4, 200 mg BIW): 5 (16.7%)
Hepatobiliary clinical AE Jaundice, subjects (Cohort 4, 200 mg BIW): 1 (3.3%)
Hepatobiliary clinical AE Liver injury, subjects (Cohort 4, 200 mg BIW): 1 (3.3%)
Intensity of Gastrointestinal AEs, Grade 1, subjects (Cohort 4, 200 mg BIW): 3 (10.0%)
Intensity of Gastrointestinal AEs, Grade 2, subjects (Cohort 4, 200 mg BIW): 13 (43.3%)
Intensity of Gastrointestinal AEs, Grade 3, subjects (Cohort 4, 200 mg BIW): 10 (33.3%)
Intensity of Gastrointestinal AEs, Grade 4, subjects (Cohort 4, 200 mg BIW): 0
Intensity of Gastrointestinal AEs, Grade 5, subjects (Cohort 4, 200 mg BIW): 1 (3.3%)
Serum ALT level, Median fold increase from Baseline at Follow-up Week 1 (Cohort 4, 200 mg BIW): 1.87 fold
Serum ALT level, Median fold increase from Baseline at Follow-up Week 4 (Cohort 4, 200 mg BIW): 1.34 fold
Serum ALT level, Peak Median fold increase from Baseline (Cohort 4, 200 mg BIW): 3.55 fold
Subjects completed study (Cohort 4, 200 mg BIW): 6 (20.0%) n (%)
Total Bilirubin (Screening) >1-[…] ULN, subjects (Cohort 4, 200 mg BIW): 1 (3.3%)
Total Bilirubin (Screening) >1.5-3 × ULN, subjects (Cohort 4, 200 mg BIW): 0
Total Bilirubin (Screening) >3-10 × ULN, subjects (Cohort 4, 200 mg BIW): 0
Total Bilirubin (Screening) >10 × ULN, subjects (Cohort 4, 200 mg BIW): 0
Total Bilirubin (any time during therapy) >1-[…] ULN, subjects (Cohort 4, 200 mg BIW): 3 (10.3%)
Total Bilirubin (any time during therapy) >1.5-3 × ULN, subjects (Cohort 4, 200 mg BIW): 1 (3.4%)
Total Bilirubin (any time during therapy) >3-10 × ULN, subjects (Cohort 4, 200 mg BIW): 1 (3.4%)
Total Bilirubin (any time during therapy) >10 × ULN, subjects (Cohort 4, 200 mg BIW): 0
incidence of diarrhea (Cohort 4, 200 mg BIW): 70%
Abdominal pain leading to study drug withdrawal (Cohort 4, 200 mg BIW, N = 30): 1 (3.3%)
All AEs leading to withdrawal (Cohort 4, 200 mg BIW, N = 30): 18 (60.0%)
Diarrhoea leading to study drug withdrawal (Cohort 4, 200 mg BIW, N = 30): 7 (23.3%)
